Assay results published in PMC12405493, “Selective ubiquitination of drug-like small molecules by the ubiquitin ligase HUWE1” (Nature Communications, 2025).

Experiments:
HEK293T WT cells = test: Click chemistry-based detection of compound ubiquitination in cell lysates; parameters: species or system human; details: for Compound ubiquitination in cells (click chemistry, cell lysates): HEK293T WT, 10 μM or 20 μM
Procedure: Cell lysate-based applications: HEK293T WT or HUWE1 KO cells at ~70% confluency on a 10-cm dish were treated with 10 μM or 20 μM BI8626 derivative 6, 7 or 8 for the indicated times. As indicated in the results section, derivative 8 yielded slightly stronger signal than 6 and was thus used for analyses of the prerequisites of cellular small-molecule ubiquitination. Treatment with 1 μM TAK243 (MedChemExpress) or 10 μM MLN4924 (Sigma-Aldrich) was performed for 1 h, prior to derivative 8 administration. Cells were collected with ice-cold 1 x DPBS, centrifugated, and the cell pellet was resuspended in 300 μL sodium phosphate buffer (pH 7.0) (Jena Bioscience), supplemented with 1% (v/v) NP-40, 3 M urea, 10 mM NEM, 50 μM PR-619, 10 μM MG-132 and protease-phosphatase inhibitor cocktail. After 20 min rotating at 4 °C, the lysate was cleared by centrifugation, the total protein concentration determined with a Pierce BCA Protein Assay Kit, the sample diluted to ~7.5 μg μL^−1 and supplemented with 5 μM IRDye 800CW Azide (LI-COR), a mixture of 2 mM CuSO4/10 mM THPTA (Jena Bioscience) and 100 mM sodium ascorbate. The click chemistry reaction was performed in the dark at 37 °C, shaking at 300 rpm. After 1 h, the reaction was quenched with 40 mM EDTA, diluted 1.2-fold with 10 mM Tris (pH 7.5), 150 mM NaCl and 0.5 mM EDTA. 25 μL Ubiquitin-Trap Magnetic Agarose beads (Proteintech) were added, the mixture was rotated at 4 °C for 80 min, the resin washed 3 x with 10 mM Tris (pH 7.5), 150 mM NaCl, 0.05% (v/v) NP-40, 0.5 mM EDTA and 3 M urea, following protein elution in 40 μL of 1.5 x SDS-loading dye at 95 °C for 5 min. 10 μL were subjected to SDS-PAGE and analyzed by fluorescence scanning (Odyssey CLx; LI-COR) and Coomassie staining.

HUWE1^HECT [1] = target: T1, HUWE1^HECT (Homo sapiens, UniProt Q7Z6Z7); test: HUWE1^HECT multi-turnover ubiquitination reactions (fluorescent Ub tracer, SDS-PAGE); format: biochemical; details: 20 μM compound
T1 construct: the isolated HECT domain of HUWE1 (HUWE1^HECT); made in house
T1 sequence (Q7Z6Z7 4038-4374 limits assumed): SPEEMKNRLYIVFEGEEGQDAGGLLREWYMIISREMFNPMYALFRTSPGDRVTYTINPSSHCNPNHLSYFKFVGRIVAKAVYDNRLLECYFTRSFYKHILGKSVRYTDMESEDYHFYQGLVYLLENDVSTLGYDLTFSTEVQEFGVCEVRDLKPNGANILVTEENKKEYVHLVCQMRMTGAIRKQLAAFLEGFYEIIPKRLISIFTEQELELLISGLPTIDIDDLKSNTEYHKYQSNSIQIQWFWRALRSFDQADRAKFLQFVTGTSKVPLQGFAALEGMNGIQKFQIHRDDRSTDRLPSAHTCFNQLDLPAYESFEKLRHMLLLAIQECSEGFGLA
Procedure: (§1) HUWE1^HECT multi-turnover ubiquitination reactions were performed for 30 minutes (unless stated otherwise) with 200 nM UBA1, 5 μM UBE2L3 or UBE2D3 (as specified), 1 μM HUWE1^HECT and 30 μM Ub in 25 mM HEPES (pH 7.5), 100 mM NaCl, 3 mM MgCl2, and 0.5 mM TCEP. HUWE1^FL multi-turnover ubiquitination reactions included 50 nM UBA1, 2.5 μM UBE2L3, 0.05 μM HUWE1^FL, 0.5 μM MCL1 (or 0.5 μM H2B or 1 μM FOXP3) and 20 μM Ub in 20 mM HEPES (pH 7.5), 100 mM NaCl, 3 mM MgCl2, and 0.5 mM TCEP. All multi-turnover reactions were started by the addition of 1 mM ATP, incubated at 30 °C, quenched with SDS-loading dye. If not stated otherwise, HUWE1^FLautoubiquitination reactions were incubated for 20 minutes. Substrate ubiquitination reactions with MCL1 or H2B were incubated for 10 and 20 min, respectively; those with FOXP3 for 30 min. Those reactions that were monitored by fluorescence contained a fluorescent Ub tracer (IRDye 800CW maleimide; LI-COR)[55] and were monitored using an Odyssey CLx scanner (LI-COR), followed by Coomassie staining. In the fluorescence images, only those marker bands are labeled (in kDa) that are visible by fluorescence; all marker bands are labeled in the Coomassie-stained images. Statistical analyses were performed with Prism 9 v.9.3.1 (GraphPad).

HUWE1^HECT [2] = target: T2, HUWE1^HECT (Homo sapiens, UniProt Q7Z6Z7); test: Analytical SEC / intact protein MS of HUWE1^HECT-driven compound ubiquitination; format: biochemical; details: 20 μM compound; + ATP; WT Ub
T2 construct: the isolated HECT domain of HUWE1 (HUWE1^HECT); made in house
T2 sequence (Q7Z6Z7 3993-4374): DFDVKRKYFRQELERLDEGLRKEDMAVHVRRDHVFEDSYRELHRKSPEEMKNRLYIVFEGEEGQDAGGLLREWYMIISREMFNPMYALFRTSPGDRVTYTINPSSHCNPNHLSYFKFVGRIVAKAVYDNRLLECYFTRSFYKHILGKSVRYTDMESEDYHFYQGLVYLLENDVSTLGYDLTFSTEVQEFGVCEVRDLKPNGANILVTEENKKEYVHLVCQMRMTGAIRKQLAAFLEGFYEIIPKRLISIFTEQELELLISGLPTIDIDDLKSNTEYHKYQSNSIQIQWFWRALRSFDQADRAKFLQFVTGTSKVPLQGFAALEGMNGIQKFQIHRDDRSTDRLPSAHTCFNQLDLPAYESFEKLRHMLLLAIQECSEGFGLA
Procedure: HUWE1^HECT multi-turnover ubiquitination reactions were performed with 500 nM UBA1, 5 μM UBE2L3, 5 μM HUWE1^HECT and 100 μM Ub in 20 mM HEPES (pH 7.5), 100 mM NaCl and 0.5 mM TCEP in the presence of 1 mM ATP and 3 mM MgCl2. After 15 min incubation at 30 °C, the mixture was injected into a Superdex 75 Increase 3.2/300 column (Cytiva), equilibrated in 25 mM HEPES (pH 7.5), 100 mM NaCl, and 0.5 mM TCEP at 4 °C. Chromatograms were analyzed and peaks integrated with Unicorn v.7.9.02440 (Cytiva). Data were plotted with Prism v.9.3.1 (GraphPad).
Intact protein LC/MS: protein molecular weights (MWs) were determined by LC/MS on a nanoflow chromatography system (Dionex U3000 nanoRSLC), hyphenated to a hybrid quadrupole/orbitrap mass spectrometer (Q Exactive HF) with a NanoFlex ion source and controlled by Xcalibur v.2.4 (all Thermo Fisher Scientific). Proteins were dissolved in 2% (v/v) acetonitrile (ACN), 0.1% (v/v) formic acid (FA) to a concentration of 100 fmol μL^−1. For each analysis, 500 fmol were enriched on a pre-column (0.15 ×20 mm, Reprosil-Pur120 C18-AQ 5 μm; Dr. Maisch GmbH) and separated on an analytical RP-C18 column (0.075 mm×200 mm, Reprosil-Pur 120 C18-AQ; 1.9 μm, Dr. Maisch GmbH), using a 23-min linear gradient of 10–80% (v/v) ACN/0.1% (v/v) FA at 300 nl min^−1. MS data were acquired in full MS mode across the 500–1800 m/z-range at a resolution setting of 120,000 FWHM, an AGC target of 1*10e6 and a maximum fill time of 200 ms. Charge state deconvolution and MW representation were performed in Freestyle v.1.9 (Thermo Fisher Scientific), using default settings for high-resolution data.

HUWE1^FL [3] = target: T3, HUWE1^FL (Homo sapiens, UniProt Q7Z6Z7); test: HUWE1^FL multi-turnover ubiquitination reactions without protein substrate (autoubiquitination, free Ub chains); format: biochemical; details: for Inhibition by derivatives modified at the piperazine-linked benzyl moiety: Supplementary Fig. 18c, d
T3 construct: made in house; host or cells: HEK293T (transient transfection, anti-Flag purification, SEC)
Procedure: as §1

HUWE1^FL [4] = target: T3, HUWE1^FL; test: Click chemistry-based detection of compound ubiquitination by HUWE1^FL in vitro; format: biochemical
Procedure: In vitro applications: Multi-turnover ubiquitination reactions were performed with 50 nM UBA1, 2.5 μM UBE2L3, 50 nM HUWE1^FL and 20 μM Ub in 20 mM HEPES (pH 7.5), 100 mM NaCl, 0.5 mM TCEP, and 20 μM derivative 6 or 7 ± 0.5 μM MCL1 at 30 °C for 10 min. The reactions were started by addition of 1 mM ATP/3 mM MgCl2 and quenched with 3 M urea. Click-chemistry labeling was performed by incubation of the samples with 20 μM IRDye 800CW Azide Infrared Dye (LI-COR), 5 mM CuSO4, 10 mM THPTA and 50 mM sodium ascorbate for 60 min at 37 °C in the dark, following by quenching with 40 mM EDTA. Following SDS-PAGE, the gels were fixed in 10% acetic acid and 30% ethanol for 2 ×15 min and washed in water overnight.

HEK293T HUWE1 KO cells = test: Click chemistry-based detection of compound ubiquitination in HUWE1 knock-out cells (± HUWE1 overexpression); format: cell-based, human
Procedure: The protocol for CRISPR/Cas9-mediated HUWE1-knockout in HEK293T cells was previously described. In short, two sgRNAs were cloned separately into pX330-U6-Chimeric_BB-CBh-hSpCas9 (a gift from Feng Zhang; http://n2t.net/addgene:42230; RRID:Addgene_42230)[68] and pSpCas9(BB)−2A-GFP (PX458) (a gift from Feng Zhang; http://n2t.net/addgene:48138; RRID:Addgene_48138)[69]. Transfections were performed with Lipofectamine LTX (Thermo Fisher Scientific), single cells FACS-seeded into 96-well plates, and clones derived from single cells screened for HUWE1 deficiency by sequencing and immunoblotting.
Transient transfections of HA-tagged HUWE1^FL WT and C4341S (Fig. 5g) were performed in antibiotic-free and FBS-free media using Lipofectamine 3000 (Thermo Fisher Scientific). 6 h post transfection the media was exchanged to media supplemented with antibiotics and FBS. 24 h post transfection cells were treated with 10 μM or 20 μM BI8626 derivative 8 for 1 h and then collected.
Cell lysate-based applications: HEK293T WT or HUWE1 KO cells at ~70% confluency on a 10-cm dish were treated with 10 μM or 20 μM BI8626 derivative 6, 7 or 8 for the indicated times. As indicated in the results section, derivative 8 yielded slightly stronger signal than 6 and was thus used for analyses of the prerequisites of cellular small-molecule ubiquitination. Treatment with 1 μM TAK243 (MedChemExpress) or 10 μM MLN4924 (Sigma-Aldrich) was performed for 1 h, prior to derivative 8 administration. […] After 20 min rotating at 4 °C, the lysate was cleared by centrifugation, the total protein concentration determined with a Pierce BCA Protein Assay Kit, the sample diluted to ~7.5 μg μL^−1 and supplemented with 5 μM IRDye 800CW Azide (LI-COR), a mixture of 2 mM CuSO4/10 mM THPTA (Jena Bioscience) and 100 mM sodium ascorbate. […] 10 μL were subjected to SDS-PAGE and analyzed by fluorescence scanning (Odyssey CLx; LI-COR) and Coomassie staining.

T3 sequence (Q7Z6Z7 whole entry): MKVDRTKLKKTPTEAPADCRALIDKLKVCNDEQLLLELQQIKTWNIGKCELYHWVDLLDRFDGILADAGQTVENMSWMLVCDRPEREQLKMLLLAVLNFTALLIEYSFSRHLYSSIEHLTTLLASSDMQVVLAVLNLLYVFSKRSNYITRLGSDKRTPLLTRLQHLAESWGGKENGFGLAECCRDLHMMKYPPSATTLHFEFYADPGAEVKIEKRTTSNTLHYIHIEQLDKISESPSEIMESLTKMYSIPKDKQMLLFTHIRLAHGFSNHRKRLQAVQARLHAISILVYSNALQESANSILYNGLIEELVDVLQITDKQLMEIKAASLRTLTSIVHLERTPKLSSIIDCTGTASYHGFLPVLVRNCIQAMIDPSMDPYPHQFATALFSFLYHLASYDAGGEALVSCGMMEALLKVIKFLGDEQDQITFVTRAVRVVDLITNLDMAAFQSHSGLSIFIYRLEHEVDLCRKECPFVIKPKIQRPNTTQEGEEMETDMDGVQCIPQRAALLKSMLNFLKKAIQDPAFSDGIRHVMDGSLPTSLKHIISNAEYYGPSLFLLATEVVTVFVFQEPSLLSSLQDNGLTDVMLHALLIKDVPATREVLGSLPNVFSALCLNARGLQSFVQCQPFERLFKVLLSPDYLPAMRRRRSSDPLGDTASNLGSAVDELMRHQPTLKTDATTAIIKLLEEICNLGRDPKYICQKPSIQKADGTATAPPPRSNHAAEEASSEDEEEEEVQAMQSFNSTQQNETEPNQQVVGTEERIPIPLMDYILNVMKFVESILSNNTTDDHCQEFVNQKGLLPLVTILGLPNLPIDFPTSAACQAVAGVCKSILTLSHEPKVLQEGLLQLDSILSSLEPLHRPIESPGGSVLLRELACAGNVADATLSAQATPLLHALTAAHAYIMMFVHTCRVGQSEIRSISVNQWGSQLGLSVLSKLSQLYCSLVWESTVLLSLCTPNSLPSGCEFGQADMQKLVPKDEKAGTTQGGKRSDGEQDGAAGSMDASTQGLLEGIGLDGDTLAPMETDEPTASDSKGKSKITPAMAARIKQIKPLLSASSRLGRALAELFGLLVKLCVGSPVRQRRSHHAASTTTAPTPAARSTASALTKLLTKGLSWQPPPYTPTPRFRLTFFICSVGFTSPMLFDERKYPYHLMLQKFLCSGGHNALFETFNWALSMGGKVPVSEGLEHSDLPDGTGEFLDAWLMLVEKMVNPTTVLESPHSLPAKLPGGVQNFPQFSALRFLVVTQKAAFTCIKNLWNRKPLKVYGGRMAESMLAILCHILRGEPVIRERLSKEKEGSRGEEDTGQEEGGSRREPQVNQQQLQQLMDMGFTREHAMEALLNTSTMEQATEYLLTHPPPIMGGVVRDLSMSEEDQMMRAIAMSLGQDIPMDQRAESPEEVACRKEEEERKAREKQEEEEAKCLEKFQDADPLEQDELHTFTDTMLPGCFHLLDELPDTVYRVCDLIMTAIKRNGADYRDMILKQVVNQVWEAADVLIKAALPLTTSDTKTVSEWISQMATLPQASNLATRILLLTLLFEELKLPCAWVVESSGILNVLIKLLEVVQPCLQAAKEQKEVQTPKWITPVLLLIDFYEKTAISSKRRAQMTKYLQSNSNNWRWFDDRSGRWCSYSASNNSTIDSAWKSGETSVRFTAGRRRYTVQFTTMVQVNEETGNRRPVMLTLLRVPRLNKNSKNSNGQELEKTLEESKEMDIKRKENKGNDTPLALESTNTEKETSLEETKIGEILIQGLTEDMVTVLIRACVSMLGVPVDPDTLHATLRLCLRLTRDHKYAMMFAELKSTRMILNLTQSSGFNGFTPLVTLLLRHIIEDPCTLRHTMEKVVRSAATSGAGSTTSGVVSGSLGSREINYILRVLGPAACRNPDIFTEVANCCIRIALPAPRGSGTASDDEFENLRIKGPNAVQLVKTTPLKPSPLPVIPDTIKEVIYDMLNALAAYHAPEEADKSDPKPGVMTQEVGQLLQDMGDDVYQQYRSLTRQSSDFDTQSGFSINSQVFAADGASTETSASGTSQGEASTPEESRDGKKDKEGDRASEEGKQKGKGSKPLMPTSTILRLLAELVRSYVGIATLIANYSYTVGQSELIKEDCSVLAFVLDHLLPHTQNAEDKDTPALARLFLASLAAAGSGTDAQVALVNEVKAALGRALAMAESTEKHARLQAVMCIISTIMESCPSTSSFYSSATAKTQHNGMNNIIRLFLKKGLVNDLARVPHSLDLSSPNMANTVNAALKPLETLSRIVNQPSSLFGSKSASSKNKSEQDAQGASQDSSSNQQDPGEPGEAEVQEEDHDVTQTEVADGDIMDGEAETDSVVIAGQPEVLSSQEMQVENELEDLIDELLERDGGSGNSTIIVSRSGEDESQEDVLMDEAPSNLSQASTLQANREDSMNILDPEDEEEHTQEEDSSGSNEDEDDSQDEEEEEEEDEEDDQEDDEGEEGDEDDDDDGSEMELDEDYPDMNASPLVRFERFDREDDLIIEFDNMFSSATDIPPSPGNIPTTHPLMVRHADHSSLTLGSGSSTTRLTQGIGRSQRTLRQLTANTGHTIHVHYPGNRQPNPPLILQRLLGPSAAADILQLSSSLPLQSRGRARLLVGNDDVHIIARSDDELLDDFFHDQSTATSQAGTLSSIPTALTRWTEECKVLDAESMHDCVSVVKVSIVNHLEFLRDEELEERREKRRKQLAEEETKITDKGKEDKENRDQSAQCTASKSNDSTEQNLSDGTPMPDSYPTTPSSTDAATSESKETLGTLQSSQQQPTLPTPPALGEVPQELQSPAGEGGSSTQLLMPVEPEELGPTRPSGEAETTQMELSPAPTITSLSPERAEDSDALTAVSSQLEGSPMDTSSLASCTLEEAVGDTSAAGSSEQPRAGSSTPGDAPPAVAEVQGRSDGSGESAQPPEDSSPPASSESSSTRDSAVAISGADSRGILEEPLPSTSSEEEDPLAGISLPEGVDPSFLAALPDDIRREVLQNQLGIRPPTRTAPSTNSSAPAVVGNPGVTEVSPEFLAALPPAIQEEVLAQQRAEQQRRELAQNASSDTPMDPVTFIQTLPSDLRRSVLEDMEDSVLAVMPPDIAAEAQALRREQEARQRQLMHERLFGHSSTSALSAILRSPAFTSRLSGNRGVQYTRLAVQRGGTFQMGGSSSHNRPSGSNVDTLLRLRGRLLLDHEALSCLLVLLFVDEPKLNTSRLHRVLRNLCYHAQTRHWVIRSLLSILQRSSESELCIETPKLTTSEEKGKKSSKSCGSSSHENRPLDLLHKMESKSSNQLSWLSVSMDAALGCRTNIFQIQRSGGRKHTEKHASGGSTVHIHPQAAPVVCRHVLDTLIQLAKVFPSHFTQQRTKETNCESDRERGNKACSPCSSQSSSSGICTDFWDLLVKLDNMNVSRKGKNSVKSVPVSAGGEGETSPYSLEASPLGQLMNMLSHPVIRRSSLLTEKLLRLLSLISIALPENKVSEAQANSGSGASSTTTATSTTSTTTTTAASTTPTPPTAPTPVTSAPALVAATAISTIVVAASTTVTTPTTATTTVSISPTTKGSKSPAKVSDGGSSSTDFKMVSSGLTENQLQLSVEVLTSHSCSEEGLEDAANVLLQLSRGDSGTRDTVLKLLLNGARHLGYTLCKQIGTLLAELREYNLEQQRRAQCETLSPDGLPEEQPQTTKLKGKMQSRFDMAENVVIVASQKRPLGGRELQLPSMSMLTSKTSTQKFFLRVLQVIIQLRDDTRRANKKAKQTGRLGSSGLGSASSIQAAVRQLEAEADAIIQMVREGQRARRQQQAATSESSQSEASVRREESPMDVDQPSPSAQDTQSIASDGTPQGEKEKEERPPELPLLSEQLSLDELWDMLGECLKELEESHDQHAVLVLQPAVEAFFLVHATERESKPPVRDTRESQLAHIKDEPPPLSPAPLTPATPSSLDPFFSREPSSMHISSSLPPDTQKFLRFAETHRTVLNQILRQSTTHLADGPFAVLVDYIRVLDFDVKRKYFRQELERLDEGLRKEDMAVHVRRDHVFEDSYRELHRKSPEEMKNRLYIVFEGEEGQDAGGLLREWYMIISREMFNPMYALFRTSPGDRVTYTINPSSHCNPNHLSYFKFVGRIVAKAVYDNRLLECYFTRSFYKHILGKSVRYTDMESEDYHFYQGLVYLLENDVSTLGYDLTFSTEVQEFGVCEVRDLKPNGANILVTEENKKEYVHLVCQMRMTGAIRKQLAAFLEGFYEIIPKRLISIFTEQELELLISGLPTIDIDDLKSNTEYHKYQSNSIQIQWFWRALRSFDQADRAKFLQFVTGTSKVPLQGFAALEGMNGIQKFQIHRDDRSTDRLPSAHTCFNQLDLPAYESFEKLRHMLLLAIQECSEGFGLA

NS(=O)(=O)OC[C@@H]1C[C@@H](n2ccc3c(N[C@H]4CCc5ccccc54)ncnc32)C[C@@H]1O [MLN4924]
Effect on cell-based ubiquitination of derivative 8 (HEK293T WT cells; 10 μM MLN4924 for 1 h prior to derivative 8): does not markedly affect derivative 8 ubiquitination

NS(=O)(=O)OC[C@H]1C[C@@H](Nc2ccnc3cc(-c4cccc(SC(F)(F)F)c4)nn23)[C@H](O)[C@@H]1O [TAK243]
Effect on cell-based ubiquitination of derivative 8 (HEK293T WT cells; 1 μM TAK243 for 1 h prior to derivative 8): markedly reduced

NCc1ccc(CNc2ncnc3c(N4CCN(Cc5ccccc5)CC4)ncnc23)cc1 [derivative 1, N-(4-(aminomethyl)benzyl)−8-(4-benzylpiperazin-1-yl)pyrimido[5,4-d]pyrimidin-4-amine]
HUWE1^HECT inhibition (autoubiquitination) by BI8626 derivatives (HUWE1^HECT [1]): retained HUWE1^HECT inhibition | Compound ubiquitination by HUWE1^HECT (SEC, intact protein MS) (HUWE1^HECT [2]): efficiently ubiquitinated | Inhibition of HUWE1^FL by BI8626 derivatives (HUWE1^FL [3]; 20 μM, without protein substrate and with MCL1 (Fig. 4c, d)): also inhibited

CN1CCN(c2ncnc3c(NCc4cccc(CN)c4)ncnc23)CC1 [derivative 5, N-(3-(aminomethyl)benzyl)−8-(4-methylpiperazin-1-yl)pyrimido[5,4-d]pyrimidin-4-amine]
Inhibition by derivatives modified at the piperazine-linked benzyl moiety (HUWE1^FL [3]): maintains considerable inhibition

C#CCCCN1CCN(c2ncnc3c(NCc4cccc(CN)c4)ncnc23)CC1 [derivative 6, N-(3-(aminomethyl)benzyl)−8-(4-(pent-4-yn-1-yl)piperazin-1-yl)pyrimido[5,4-d]pyrimidin-4-amine]
Inhibition by derivatives modified at the piperazine-linked benzyl moiety (HUWE1^FL [3]): preserved inhibition to a similar extent | Compound ubiquitination by HUWE1^FL, click-chemistry fluorescence (HUWE1^FL [4]; 20 μM compound, 10 min, ATP-dependent): fluorescent signals corresponding to the mono- and diubiquitinated forms | MCL1 ubiquitination (immunoblotting) with increasing compound (HUWE1^FL [4]; varying concentrations of derivative 6 and MCL1): decreased as the compound modification increased | Compound ubiquitination in cells (click chemistry, cell lysates) (HEK293T WT cells): Both mono- and polyubiquitinated forms of derivatives 6 and 8 were detected

C#CCN1CCN(c2ncnc3c(NCc4cccc(CN)c4)ncnc23)CC1 [derivative 8, N-(3-(aminomethyl)benzyl)−8-(4-(prop-2-yn-1-yl)piperazin-1-yl)pyrimido[5,4-d]pyrimidin-4-amine]
Inhibition by derivatives modified at the piperazine-linked benzyl moiety (HUWE1^FL [3]): preserved inhibition to a similar extent | Compound ubiquitination in cells (click chemistry, cell lysates) (HEK293T WT cells): Both mono- and polyubiquitinated forms of derivatives 6 and 8 were detected | Compound ubiquitination in HUWE1 knock-out cells (HEK293T HUWE1 KO cells; HEK293T HUWE1 KO vs WT): still detected in this context, albeit at slightly reduced levels | Compound ubiquitination upon overexpression of WT HUWE1 (not catalytically inactive variant) (HEK293T HUWE1 KO cells; HEK293T HUWE1 KO, transient transfection): enhances compound ubiquitination | Share of total compound ubiquitination signal that endogenous HUWE1 accounts for (HEK293T HUWE1 KO cells; HEK293T WT vs HUWE1 KO, all species (8-Ub, 8-Ub2, 8-Ubn)): ≤ 25%
